Source: publication PMC9216541, “Design and synthesis of Nrf2-derived hydrocarbon stapled peptides for the disruption of protein-DNA-interactions” (PLoS ONE, 2022)
Where a SMILES comes first, the peptide text is derived from it. Bridges are numbered along the chain shown (N, C = ends). [ ]: non-standard residue; d: D form. The star is where a group is joined. FITC = O=C1OC2(c3ccc(O)cc3Oc3cc(O)ccc32)c2ccc(NC(=S)*)cc21; R8 = C=CCCCCCC[C@@](C)(N)C(=O)O; R5 = C=CCCC[C@@](C)(N)C(=O)O; S5 = C=CCCC[C@](C)(N)C(=O)O; GABA = NCCCC(=O)O

Tests used:
[1] = CD measurements, helical fraction from ellipticity at 222 nm; type: physicochemical; conditions: peptide 20 μM in water, calculated from [θ]obs at 222 nm by established methods (ref 30)
Protocol: CD measurements were carried out on a JASCO J-715 spectrometer using water as the solvent for all measurements. The peptides were solved in water to a concentration of 20 μM. The linear peptide 5 was used as a control compound. The helical fraction for peptides 1–5 was calculated from the observed ellipticity [θ]obs at 222 nm using established methods.

[2] = biological target: 6FAM-labeled MARE23 sequence (Nrf2:sMaf binding dsDNA); test: Fluorescence polarization assay with 6FAM-labeled MARE23 dsDNA; conditions: FP, 10 nM 6FAM-MARE23 dsDNA, peptide 25 μM - 6.1 nM, 50 mM Tris/HCl pH 7.5, 100 mM NaCl, 60 min at room temperature; quadruplicates, three independent replicates, four parameter logistic fit
Protocol: For DNA hybridization, equimolar amounts of fluorescein- or 6FAM-labeled sense and unlabeled antisense oligonucleotides were mixed in 1X annealing buffer (10 mM Tris pH 7.5, 100 mM NaCl, 1 mM EDTA) to yield a final concentration of 20 μM of dsDNA. Subsequently, mixtures were heated to 95°C for 10 min followed by cooling to 20°C at a rate of 1°C per minute. Afterwards, dsDNA probes were diluted to 10 nm in FP assay buffer (50 mM Tris/HCl pH 7.5, 100 mM NaCl, 2 mM MgCl2, 0.5 mM EDTA, 10 μg/mL BSA, 0.1 mM DTT, 0.01% Tween-20) and mixed with serial dilutions of peptides 1–6 (25 μM—6.1 nm), that were generated with the Echo 520 liquid handler (Labcyte Inc.), in a total volume of 10.2 μL per well in black 384-well small volume microplates (Greiner Bio-One). The microplates were shaken at 1500 rpm for 30 s, centrifuged at 200 x g for 60 s and subsequently incubated for 60 min in a humidified, dark chamber at room temperature. Finally, the fluorescence polarization was analyzed on an Infinite® M1000 microplate reader (Tecan) using the appropriate settings for fluorescein/6FAM, i.e. an excitation wavelength of 470 ± 2.5 nm and an emission wavelength of 520 ± 7.5 nm.
Each concentration was analyzed in quadruplicates and resulting mean fluorescence polarization and standard deviation was fit to a four parameter logistic model with Origin (OriginLab, Northampton, MA) using the following equation: y=A1−A2/1+x/x0^p+A2
Each experiment was performed in three independent replicates.
Figure S5. Fluorescence polarization binding studies of stapled peptides 1-6 towards target DNA sequence MARE23 (5’-[6FAM][…]-3’ and 5’-[…]-3’) (A, C) and control DNA sequence MARE23_scrambled (5’-[6FAM][…]-3’ and 5’-GAGTAA-TAGCTATGACGATATTCCG-3’) (B and D, respectively). The obtained polarization values were either baseline-corrected (A, B) or corrected for the changes in fluorescence intensity in the free/bound state of the fluorescently labeled dsDNA probes (C, D).^[1] The resulting dissociation constants are listed in the inset tables in the respective panels. […]

living HeLa cells = test: Cell permeability in living HeLa cells, fluorescence microscopy; type: cell-based
Protocol: (§1) HeLa cells (ATCC CCL-2) were cultured in Dulbecco’s Modified Eagle Medium (DMEM) supplemented with 10% FBS (Pan Biotech), 2 mM L-glutamine, 100 U/ml penicillin and 100 μg/ml streptomycin at 37°C and 5% CO2.
To investigate the cell permeability of peptide 4, living HeLa cells were washed twice and incubated for 5 min with DPBS + Mg/Ca, ([…]) in a CO2 incubator. Cells were subsequently incubated in the presence of 10 μM of peptide 4 in DPBS + Mg/Cl for 5 min, followed by two washes with DPBS + Mg/Cl and final addition of HEPES-buffered imaging medium containing 0.5 μM propidium iodide.
(§2) Imaging was performed using an Olympus IX81 microscope with 20x and 60x UPLSAPO objectives and standard fluorescence filter sets.

[3] = tested on: dsDNA probe (MARE23, MARE23_scrambled, randomized sequence); test: Electrophoretic mobility shift assay; type: binding; conditions: 1 pmol dsDNA probe with excess of peptide, 30 min at room temperature, native 15% TBE polyacrylamide gel
Protocol: DNA hybridization was performed as described above. Afterwards, 1 pmol of the dsDNA probe was incubated with the respective excess of peptide in 1X assay buffer (10 mM Tris pH 7.5, 100 mM KCl, 2 mM MgCl2, 0.5 mM EDTA, 10 μg/mL BSA, 0.1 mM DTT, 2.5% glycerol) in a final volume of 10 μL and incubated for 30 min at room temperature. Prior to gel electrophoresis, samples were mixed with 2 μL of 6X loading buffer (60 mM Tris pH 7.5, 15% Ficoll 400) and the reaction mixtures were then loaded onto hand-cast, native 15% TBE polyacrylamide gels. Separation was performed for 45 min at a current of 20 mA per gel in a cold room at 4°C and the gels were analyzed on a Typhoon FLA 9500 laser scanner (GE Healthcare) using the 473 nm laser for excitation and a 510 nm long-pass filter (LPB (510LP)) for emission of fluorescein and FAM, respectively.
[picture] Figure S6. Electrophoretic mobility shift assays of peptides 4 and 5 with MARE23 (5’-[6FAM][…]-3’ and 5’-[…]-TTCCG-3’).
Figure S7. Electrophoretic mobility shift assays of peptides 4 and 5 with MARE23_scrambled (5’-[6FAM][…]-3’ and 5’-[…]-TTCCG-3’).
Figure S8. Electrophoretic mobility shift assays of peptides 4 and 5 with DNA with a randomized sequence (5’-[6FAM][…]-3’ and 5’-GAG-[…]-3’).

[4] = biological target: peptide 1 (stapled Nrf2-derived) (UniProt Q16236); test: fluorescence polarization; conditions: FP: 50 mM Tris/HCl pH 7.5, 100 mM NaCl, 2 mM MgCl2, 0.5 mM EDTA, 10 ug/mL BSA, 0.1 mM DTT, 0.01% Tween-20, 10 nM DNA, 60 min RT; EMSA: 10 mM Tris pH 7.5, 100 mM
[5] = biological target: peptide 2 (stapled Nrf2-derived) (UniProt Q16236); test: fluorescence polarization; conditions: FP: 50 mM Tris/HCl pH 7.5, 100 mM NaCl, 2 mM MgCl2, 0.5 mM EDTA, 10 ug/mL BSA, 0.1 mM DTT, 0.01% Tween-20, 10 nM DNA, 60 min RT; EMSA: 10 mM Tris pH 7.5, 100 mM
[6] = biological target: peptide 3 (stapled Nrf2-derived) (UniProt Q16236); test: fluorescence polarization; conditions: FP: 50 mM Tris/HCl pH 7.5, 100 mM NaCl, 2 mM MgCl2, 0.5 mM EDTA, 10 ug/mL BSA, 0.1 mM DTT, 0.01% Tween-20, 10 nM DNA, 60 min RT; EMSA: 10 mM Tris pH 7.5, 100 mM
[7] = biological target: peptide 4 (stapled Nrf2-derived) (UniProt Q16236); test: fluorescence polarization; conditions: FP: 50 mM Tris/HCl pH 7.5, 100 mM NaCl, 2 mM MgCl2, 0.5 mM EDTA, 10 ug/mL BSA, 0.1 mM DTT, 0.01% Tween-20, 10 nM DNA, 60 min RT; EMSA: 10 mM Tris pH 7.5, 100 mM
[8] = biological target: peptide 5 (linear Nrf2-derived) (UniProt Q16236); test: fluorescence polarization; conditions: FP: 50 mM Tris/HCl pH 7.5, 100 mM NaCl, 2 mM MgCl2, 0.5 mM EDTA, 10 ug/mL BSA, 0.1 mM DTT, 0.01% Tween-20, 10 nM DNA, 60 min RT; EMSA: 10 mM Tris pH 7.5, 100 mM
peptide 6 (scrambled) = test: fluorescence polarization; conditions: FP: 50 mM Tris/HCl pH 7.5, 100 mM NaCl, 2 mM MgCl2, 0.5 mM EDTA, 10 ug/mL BSA, 0.1 mM DTT, 0.01% Tween-20, 10 nM DNA, 60 min RT; EMSA: 10 mM Tris pH 7.5, 100 mM
[9] = tested on: cellular DNA in fixed, permeabilized HeLa cells; test: Incubation with fixed, permeabilized HeLa cells, wide-field fluorescence microscopy; type: cell-based; conditions: FITC-labeled peptide
Protocol: as §1
For fixing and permeabilization, HeLa cells were incubated with pre-warmed 4% formaldehyde for 20 min at 37°C, followed by permeabilization with 0.25% Triton-X 100 for 20 min at room temperature. For the evaluation of the effect of proteases, cOmplete protease inhibitor mix (1X) 500 μl was added to the fixed cells for 30 min. Peptides were incubated at 1 μM for 3 h in the presence of the protease inhibitor mix, followed by 3 min incubation with 1 μM of the nucleic acid marker DAPI, then extensively washed with DPBS and subjected to wide-field imaging.
as §2

IRRRS5KNKS5AAQNCRKRK (sidechain bridge or staple) [compound 1, Nrf2-derived i,i+4 hydrocarbon stapled peptide (505/509), N-terminally acetylated, C-terminal amide]
Helicity (calculated) / α-helical content [1]: 20% | Kd [2]: 1600 ± 40 nM

CC[C@H](C)[C@H](NC(=O)CCCNC(=S)Nc1ccc2c(c1)C(=O)OC21c2ccc(O)cc2Oc2cc(O)ccc21)C(=O)N[C@@H](CCCNC(=N)N)C(=O)N[C@@H](CCCNC(=N)N)C(=O)N[C@@H](CCCNC(=N)N)C(=O)N[C@]1(C)CCCCCCC=CCCC[C@@](C)(C(=O)N[C@@H](CC(N)=O)C(=O)N[C@@H](CS)C(=O)N[C@@H](CCCNC(=N)N)C(=O)N[C@@H](CCCCN)C(=O)N[C@@H](CCCNC(=N)N)C(=O)N[C@@H](CCCCN)C(N)=O)NC(=O)[C@H](C)NC(=O)[C@H](C)NC(=O)[C@H](C(C)C)NC(=O)[C@H](CCCCN)NC(=O)[C@H](CC(N)=O)NC(=O)[C@H](CCCCN)NC1=O [FITC-4] ({FITC-GABA}-IRRR[R8]KNKVAA[S5]NCRKRK-NH2; staple 5-12)
membrane permeability in living cells (living HeLa cells; 10 μM peptide in DPBS + Mg/Ca, 5 min, serum-free, washed, FITC fluorescence microscopy): high membrane permeability in living cells | viability / membrane integrity of peptide-containing cells (propidium iodide) (living HeLa cells; 10 μM peptide, 0.5 μM propidium iodide in imaging medium): majority of peptide-containing cells were alive

CC[C@H](C)[C@H](NC(C)=O)C(=O)N[C@@H](CCCNC(=N)N)C(=O)N[C@@H](CCCNC(=N)N)C(=O)N[C@@H](CCCNC(=N)N)C(=O)N[C@]1(C)CCCCCCC=CCCC[C@@](C)(C(=O)N[C@@H](CC(N)=O)C(=O)N[C@@H](CS)C(=O)N[C@@H](CCCNC(=N)N)C(=O)N[C@@H](CCCCN)C(=O)N[C@@H](CCCNC(=N)N)C(=O)N[C@@H](CCCCN)C(N)=O)NC(=O)[C@H](C)NC(=O)[C@H](C)NC(=O)[C@H](C(C)C)NC(=O)[C@H](CCCCN)NC(=O)[C@H](CC(N)=O)NC(=O)[C@H](CCCCN)NC1=O [compound 4] (Ac-IRRR[R8]KNKVAA[S5]NCRKRK-NH2; staple 5-12)
Helicity (calculated) / α-helical content [1]: 18% | Kd [2]: 1200 ± 300 nM | mobility shift of DNA [3]: induce a mobility shift of DNA at a lower concentration than the unstapled peptide 5

CGGAATCAATGACTCATTGTTACTC (double strand) [MARE23]
Kd [4]: 1600 nM | Kd [5]: 3900 nM | Kd [6]: 1500 nM | Kd [7]: 1200 nM | Kd [8]: 7900 nM | Kd (peptide 6 (scrambled)): 8100 nM

CC[C@H](C)[C@H](NC(C)=O)C(=O)N[C@@H](CCCNC(=N)N)C(=O)N[C@@H](CCCNC(=N)N)C(=O)N[C@@H](CCCNC(=N)N)C(=O)NCC(=O)N[C@@H](CCCCN)C(=O)N[C@@H](CC(N)=O)C(=O)N[C@@H](CCCCN)C(=O)N[C@]1(C)CCCC=CCCC[C@@](C)(C(=O)N[C@@H](CC(N)=O)C(=O)N[C@@H](CS)C(=O)N[C@@H](CCCNC(=N)N)C(=O)N[C@@H](CCCCN)C(=O)N[C@@H](CCCNC(=N)N)C(=O)N[C@@H](CCCCN)C(N)=O)NC(=O)[C@H](C)NC(=O)[C@H](C)NC1=O [compound 3] (Ac-IRRRGKNK[R5]AA[S5]NCRKRK-NH2; staple 9-12)
Helicity (calculated) / α-helical content [1]: 36% | Kd [2]: 1500 ± 200 nM

IRRRGKNKVAAQNCRKRK [FITC-5, linear peptide 5 with N-terminal FITC-GABA- label]
enrichment in the nucleus ([9]; fixed (4% formaldehyde) and permeabilized (0.25% Triton-X 100) HeLa cells, DAPI co-stain): no enrichment in the nucleus could be observed | amount of peptide detectable in cells ([9]; fixed and permeabilized HeLa cells, identical exposure times): only small amounts
